{
  "source": "paper PMC6394474",
  "about": "“Evaluation of the effects of formulation, food, or a proton-pump inhibitor on the pharmacokinetics of glasdegib (PF-04449913) in healthy volunteers: a randomized phase I study” (Cancer Chemotherapy and Pharmacology, 2018)",
  "key": {"[1]": {"assay": "Phase I single-dose plasma pharmacokinetics of glasdegib tablet formulations in healthy volunteers (HPLC-MS/MS, noncompartmental analysis)", "assay_type": "in vivo, human", "excerpt": "This was a Phase I, randomized, open-label, three-period, four-sequence, four-treatment study in healthy volunteers. Subjects were randomized to one of four treatment sequences (Fig. 1). All subjects received three treatments with a washout period of at least 7 days between each administration period. The duration of each administration period was 6 days with the exception of PPI treatment, which was 12 days (including 6-day follow-up after glasdegib administration).\nNo food was allowed for at least 4 h after glasdegib dosing.\nFollowing a 10-h fast, subjects consumed a recommended high-fat (~ 50% of total caloric content of the meal), high-calorie meal (~ 800 to 1000 calories with 150, 250, and 500–600 calories from protein, carbohydrate, and fat, respectively).\nFollowing a 7-day washout period, rabeprazole 40 mg was administered daily for 7 days. On the day of PK sample collection (day 7 of rabeprazole administration), both rabeprazole and glasdegib were administered in the fasted state. Rabeprazole was administered 4 h before glasdegib. […]\nThe primary PK endpoints were AUCinf and Cmax of glasdegib. Additional PK endpoints were AUC from time 0 to the last quantifiable concentration (AUClast), time for Cmax (Tmax), plasma elimination half-life (t½), apparent oral clearance (CL/F), and apparent volume of distribution following oral dose (Vz/F).\nGlasdegib plasma concentrations were determined at Covance Bioanalytical Services (Shanghai, China) using a validated, sensitive, and specific high-performance liquid chromatography–tandem mass spectrometric (HPLC–MS/MS) method. […]\nCalibration curves were linear over the range of 3–3000 ng/mL for glasdegib in plasma, using a weighted (1/concentration^2) linear regression. The lower limit of quantification (LLOQ) of glasdegib was 3 ng/mL.\nGlasdegib PK parameters were calculated using noncompartmental analysis of plasma concentration–time data. […] AUClast was determined using the linear/log trapezoidal method. […] The t½ was calculated as loge(2)/Kel, CL/F was calculated as dose/AUCinf, and Vz/F was calculated as dose/(AUCinf × Kel). […]"}, "[2]": {"set-up": "method as in PMID 24900436", "conditions": "unpublished; cited from earlier work"}, "[3]": {"set-up": "method as in PMID 29086063", "conditions": "early maleate-salt tablet formulations, in the presence of PPIs, single 100-mg oral dose; cited from earlier work"}, "Hedgehog pathway": {"system": "Hedgehog pathway", "set-up": "method as in PMID 28556364", "conditions": "50 mg QD dose; skin; cited from earlier work"}, "[4]": {"conditions": "weakly basic drug; higher solubility at acidic pH; cited from earlier work"}, "[5]": {"assay": "Safety and tolerability: treatment-emergent adverse event monitoring in healthy subjects", "assay_type": "in vivo, human", "experimental": "Safety and tolerability of glasdegib were assessed by adverse event (AE) monitoring and changes in clinical laboratory results, ECGs, and physical examination findings. AEs were graded according to the Medical Dictionary for Regulatory Activities version 20.0."}, "[6]": {"conditions": "in the presence of a PPI (rabeprazole) vs fasted alone"}},
  "note": "“Also recorded” adds a separate entry of the source.",
  "data": [
    {"smiles": "CN1CC[C@@H](NC(=O)Nc2ccc(C#N)cc2)C[C@@H]1c1nc2ccccc2[nH]1", "note": "[glasdegib]", "values": [
      {"measurement": "decrease in geometric mean AUCinf", "setting": "[1]; high-fat, high-calorie meal vs fasted, single 100 mg oral dose", "value": 16, "unit": "%"},
      {"measurement": "change in geometric mean AUCinf", "setting": "[1]; [6]", "value": "did not result in a change"},
      {"measurement": "decrease in geometric mean Cmax", "setting": "[1]; [6]", "value": "~ 20%"},
      {"measurement": "Biopharmaceutical Classification System class", "setting": "[2]", "value": "II or IV"},
      {"measurement": "decrease in Cmax", "setting": "[3]", "value": 13, "unit": "%"},
      {"measurement": "increase in AUCinf", "setting": "[3]", "value": 12, "unit": "%"},
      {"measurement": "downregulation of the Hedgehog pathway", "setting": "Hedgehog pathway", "value": "consistent downregulation"},
      {"measurement": "solubility (pH-dependent)", "setting": "[4]", "value": "drops substantially at pH ≥ 6.3; also recorded: decreasing solubility as pH increases"},
      {"measurement": "deaths, serious AEs, severe AEs, dose reductions, discontinuations due to AEs", "setting": "[5]; all treatment arms", "value": "no deaths, serious AEs, severe AEs, dose reductions, or permanent/temporary discontinuations due to AEs"},
      {"measurement": "TEAEs reported across all treatment arms", "setting": "[5]; human, in vivo", "value": 17},
      {"measurement": "gastrointestinal disorders, share of all TEAEs", "setting": "[5]; human, in vivo", "value": 35, "unit": "%"},
      {"measurement": "severity of observed TEAEs", "setting": "[5]; human, in vivo", "value": "mild"},
      {"measurement": "subjects with TEAEs across all treatment arms", "setting": "[5]; human, in vivo", "value": 12}
    ]}
  ]
}
